According to ChEMBL document CHEMBL3393038, “Prenylated flavonoids and resveratrol derivatives isolated from Artocarpus communis with the ability to overcome TRAIL resistance” (2015):
Calls of active or inactive are those of the source. The rule behind the calls is not given here.

Experiments:
AGS [1] = experiment: Induction of apoptosis in TRAIL-resistant human AGS cells assessed as decrease in cell viability at 7.5 uM after 24 hrs in presence of TRAIL (reference value: 9%); type: functional
AGS [2] = experiment: Induction of apoptosis in TRAIL-resistant human AGS cells assessed as decrease in cell viability at 17.5 uM after 24 hrs in presence of TRAIL (reference value: 9%); type: functional
AGS [3] = experiment: Induction of apoptosis in TRAIL-resistant human AGS cells assessed as decrease in cell viability at 20 uM after 24 hrs in presence of TRAIL (reference value: 9%); type: functional
AGS [4] = experiment: Induction of apoptosis in TRAIL-resistant human AGS cells assessed as decrease in cell viability at 40 uM after 24 hrs in presence of TRAIL (reference value: 9%); type: functional
AGS [5] = experiment: Induction of apoptosis in TRAIL-resistant human AGS cells assessed as decrease in cell viability at 5 uM after 24 hrs in presence of TRAIL (reference value: 9%); type: functional
AGS [6] = experiment: Induction of apoptosis in TRAIL-resistant human AGS cells assessed as decrease in cell viability at 10 uM after 24 hrs in presence of TRAIL (reference value: 9%); type: functional
AGS [7] = experiment: Induction of apoptosis in TRAIL-resistant human AGS cells assessed as decrease in cell viability at 2 uM after 24 hrs in presence of TRAIL (reference value: 9%); type: functional
AGS [8] = experiment: Induction of apoptosis in TRAIL-resistant human AGS cells assessed as decrease in cell viability at 3 uM after 24 hrs in presence of TRAIL (reference value: 9%); type: functional
AGS [9] = experiment: Induction of apoptosis in TRAIL-resistant human AGS cells assessed as fold increase in caspase 3/7 at 5 uM after 24 hrs by Caspase-Glo 3/7 assay kit; type: functional
AGS [10] = experiment: Induction of apoptosis in TRAIL-resistant human AGS cells assessed as fold increase in caspase 3/7 at 3 uM after 24 hrs by Caspase-Glo 3/7 assay kit; type: functional
AGS [11] = experiment: Induction of apoptosis in TRAIL-resistant human AGS cells assessed as fold increase in caspase 3/7 at 3 uM after 24 hrs by Caspase-Glo 3/7 assay kit in presence of TRAIL; type: functional
AGS [12] = experiment: Induction of apoptosis in TRAIL-resistant human AGS cells assessed as population of apoptotic cells after 6 hrs by annexin-V-FLOUS/ propidium iodide staining based flow cytometry in presence of TRAIL; type: functional
AGS [13] = experiment: Induction of apoptosis in TRAIL-resistant human AGS cells assessed as population of apoptotic cells after 6 hrs by annexin-V-FLOUS/ propidium iodide staining based flow cytometry in presence of pan-caspase inhibitor z-VAD-FMK; type: functional
AGS [14] = experiment: Induction of apoptosis in TRAIL-resistant human AGS cells assessed as population of apoptotic cells after 6 hrs by annexin-V-FLOUS/ propidium iodide staining based flow cytometry; type: functional
AGS [15] = experiment: Induction of apoptosis in TRAIL-resistant human AGS cells assessed as increase in p53 protein level at 3 uM after 6 hrs by Western blotting analysis; type: functional, cell-based
AGS [16] = experiment: Induction of apoptosis in TRAIL-resistant human AGS cells assessed as increase in death receptor 5 protein level at 3 uM after 6 hrs by Western blotting analysis; type: functional
AGS [17] = experiment: Induction of apoptosis in TRAIL-resistant human AGS cells assessed as ROS-mediated increase in death receptor 5 protein level at 3 uM after 6 hrs pretreated with NAC by Western blotting analysis; type: functional, cell-based
AGS [18] = experiment: Induction of mitochondrial membrane depolarization in human AGS cells assessed as depolarized cells after 24 hrs by JC-1 staining-based flow cytometric analysis (reference value: 27.1%); type: functional
AGS [19] = experiment: Induction of apoptosis in TRAIL-resistant human AGS cells assessed as fold increase in caspase 3/7 at 5 uM after 24 hrs by Caspase-Glo 3/7 assay kit in presence of TRAIL; type: functional

Compound: C=C(C)[C@H]1Cc2c(oc3c(CC=C(C)C)c(O)c(CC=C(C)C)c(O)c3c2=O)-c2c(O)cc(O)c(O)c21 [ARTORIGIDIN A]
- Activity (AGS [1]): 26%

Compound: O=c1cc(-c2ccc(O)c(O)c2)oc2cc(O)cc(O)c12 [LUTEOLIN]
- Activity (AGS [2]): 9%

Compound: CC(C)=CCc1cc(/C=C/c2cc(O)cc(O)c2)cc(CC=C(C)C)c1O
- Activity (AGS [3]): 25%

Compound: CC(C)=CCc1c(-c2ccc(O)cc2O)oc2c3c(cc(O)c2c1=O)OC(C)(C)C=C3 [MORUSIN]
- Activity (AGS [4]): 25%

Compound: CC(C)=CCC/C(C)=C/Cc1c(O)c(CC=C(C)C)c(O)c2c(=O)c(CC=C(C)C)c(-c3cc(O)c(O)cc3O)oc12
- Activity (AGS [5]): 30%

Compound: COc1c(/C=C/c2cc(O)cc(O)c2)cc(CC=C(C)C)c(O)c1CC=C(C)C
- Activity (AGS [4]): 40%

Compound: C=C(C)[C@H]1Cc2c(oc3c4c(cc(O)c3c2=O)OC(C)(C)C=C4)-c2c(O)cc(O)c(O)c21 [ARTOBILOXANTHONE]
- Activity (AGS [6]): 32%

Compound: CC(C)=CCc1c(O)c(CC=C(C)C)c2oc(-c3cc(O)c(O)cc3O)c(CC=C(C)C)c(=O)c2c1O
- Activity (AGS [1]): 30%

Compound: CC(C)=CCc1c(-c2cc(O)c(O)cc2O)oc2c(CC=C(C)C)c3c(c(O)c2c1=O)C=CC(C)(C)O3 [HETEROPHYLLIN]
- Activity (AGS [7]): 31%

Compound: CC(C)=CCc1c(-c2cc(O)c(O)cc2O)oc2c3c(cc(O)c2c1=O)OC(C)(C)C=C3 [ARTONIN E]
- Activity (AGS [8]): 44%
- fold change (FC) (AGS [9]): 11.1
- fold change (FC) (AGS [10]): 3.7
- fold change (FC) (AGS [11]): 12.2
- inhibition (INH) (AGS [12]): 32.7%
- inhibition (INH) (AGS [13]): 2.9%
- inhibition (INH) (AGS [14]): 3.6%
- Activity (AGS [15]): Active
- fold change (FC) (AGS [16]): 1.9
- Activity (AGS [17]): inactive
- Activity (AGS [18]): 58.4%
- fold change (FC) (AGS [19]): 34.3

Compound: CC(C)=CCc1c(-c2ccc(O)cc2O)oc2cc3c(c(O)c2c1=O)C=CC(C)(C)O3 [CUDRAFLAVONE B]
- Activity (AGS [4]): 27%

Compound: CC(C)=CCc1c2c(c3oc(-c4cc(O)c(O)cc4O)c(CC=C(C)C)c(=O)c3c1O)C=CC(C)(C)O2
- Activity (AGS [7]): 46%
